# According to patent EP1981504B1, “THIADIAZOLE DERIVATIVES FOR THE TREATMENT OF NEURO DEGENERATIVE DISEASES” (NV reMYND, priority 2006, dated 2007):
# System: M17-SYNwt cells
# Experiment: α-synuclein cytotoxicity assay (LDH leakage from paraquat-treated α-synuclein over-expressing neuroblastoma cells)
# Format: cell-based, human
# Conditions: paraquat 32 mM, 40 hours, LDH release; for %I: percent inhibition of synuclein cytotoxicity at most effective concentration of test compound, relative to untreated paraquat cells; for EC50: Homo sapiens, Neuroblastoma cell, 10 point curves in duplicate
# Summary of the method: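 M17 neuroblastoma cells over-expressing wild-type α-synuclein were challenged with paraquat, and cytotoxicity was read as LDH release. Protection was expressed as percent reduction of paraquat-induced LDH release relative to untreated paraquat cells and control cells. Actives were retested in 10-point duplicate dose responses.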
Structure (SMILES),%I [%],EC50 [µg/mL]
"O=C(NCCN1CCN(c2nc(Cc3ccc(F)cc3)ns2)CC1)c1cccc(F)c1 [Compound 105, 3-fluoro-N-{2-[4-[3-(4-fluorobenzyl)-1,2,4-thiadiazol-5-yl]piperazin-1-yl]ethyl}benzamide]",115,–
"O=C(NCCN1CCN(c2nc(Cc3ccccc3)ns2)CC1)c1cccc(F)c1 [Compound 106, 3-fluoro-N-{2-[4-[3-benzyl-1,2,4-thiadiazol-5-yl]piperazin-1-yl]ethyl}benzamide]",49,–
"O=C(Cc1ccc(F)cc1)NCCN1CCN(c2nc(Cc3ccc(F)cc3)ns2)CC1 [Compound 107, 2-(4-fluorophenyl)-N-{2-[4-[3-(4-fluorobenzyl)-1,2,4-thiadiazol-5-yl]piperazin-1-yl]ethyl}acetamide]",80,0.26
"O=C(Cc1ccccc1)NCCN1CCN(c2nc(Cc3ccc(F)cc3)ns2)CC1 [Compound 108, 2-phenyl-N-{2-[4-[3-(4-fluorobenzyl)-1,2,4-thiadiazol-5-yl]piperazin-1-yl]ethyl}acetamide]",63,2.06
"Cc1ccc(Cc2nsc(N3CCN(CCNC(=O)Cc4ccc(F)cc4)CC3)n2)cc1 [Compound 109, 2-(4-fluorophenyl)-N-{2-[4-[3-(4-methylbenzyl)-1,2,4-thiadiazol-5-yl]piperazin-1-yl]ethyl}acetamide]",93,3.52
"O=C(NCCN1CCN(c2nc(Cc3ccc(F)cc3)ns2)CC1)NCc1ccccc1 [Compound 110, N-benzyl-N'-{2-[4-[3-(4-fluorobenzyl)-1,2,4-thiadiazol-5-yl]piperazin-1-yl]ethyl}urea]",77,–
"Fc1ccc(Cc2nsc(N3CCN(Cc4ccccc4)CC3)n2)cc1 [Compound 113, 1-benzyl-4-[3-(4-fluorobenzyl)-1,2,4-thiadiazol-5-yl]piperazine]",65,1.54
"Fc1ccc(Cc2nsc(N3CCN(Cc4ccc5c(c4)OCO5)CC3)n2)cc1 [Compound 114, 1-(1,3-benzodioxol-5-ylmethyl)-4-[3-(4-fluorobenzyl)-1,2,4-thiadiazol-5-yl]piperazine]",86,–
"COc1cccc(Cc2nsc(N3CCN(C(=O)c4ccccc4F)C(C)C3)n2)c1 (centres unmarked) [Compound 115, 1-(2-fluorobenzoyl)-4-[3-(3-methoxybenzyl)-1,2,4-thiadiazol-5-yl]-2-methylpiperazine]",75,0.0361
"CCc1ccc(C(=O)N2CCN(c3nc(Cc4ccc(F)cc4)ns3)CC2C)cc1 (centres unmarked) [Compound 116, 1-(4-ethylbenzoyl)-4-[3-(4-fluorobenzyl)-1,2,4-thiadiazol-5-yl]-2-methylpiperazine]",71,0.0522
"CCCCc1ccc(C(=O)N2CCN(c3nc(Cc4ccc(C)cc4)ns3)CC2C)cc1 (centres unmarked) [Compound 117, 1-(4-butylbenzoyl)-4-[3-(4-methylbenzyl)-1,2,4-thiadiazol-5-yl]-2-methylpiperazine]",82,0.0841
"COc1ccc(C(=O)N2CCN(c3nc(Cc4ccc(F)cc4)ns3)CC2C)cc1 (centres unmarked) [Compound 118, 1-(4-methoxybenzoyl)-4-[3-(4-fluorobenzyl)-1,2,4-thiadiazol-5-yl]-2-methylpiperazine]",64,0.0911
"COc1cccc(Cc2nsc(N3CCN(C(=O)c4ccc5c(c4)OCO5)C(C)C3)n2)c1 (centres unmarked) [Compound 119, 1-(1,3-benzodioxol-5-ylcarbonyl)-4-[3-(3-methoxybenzyl)-1,2,4-thiadiazol-5-yl]-2-methylpiperazine]",72,0.095
"CCCCc1ccc(C(=O)N2CCN(c3nc(Cc4ccc(F)cc4)ns3)CC2C)cc1 (centres unmarked) [Compound 120, 1-(4-butylbenzoyl)-4-[3-(4-fluorobenzyl)-1,2,4-thiadiazol-5-yl]-2-methylpiperazine]",120,0.0987
"CCCCCCc1ccc(C(=O)N2CCN(c3nc(Cc4ccc(F)cc4)ns3)CC2)cc1 [Compound 121, 1-(4-hexylbenzoyl)-4-[3-(4-fluorobenzyl)-1,2,4-thiadiazol-5-yl]piperazine]",64,0.12
"CC1CN(c2nc(Cc3ccc(F)cc3)ns2)CCN1C(=O)c1cccc(Cl)c1 (centres unmarked) [Compound 122, 1-(3-chlorobenzoyl)-4-[3-(4-fluorobenzyl)-1,2,4-thiadiazol-5-yl]-2-methylpiperazine]",92,0.14
"COc1cccc(Cc2nsc(N3CCN(C(=O)c4ccc(F)cc4)C(C)C3)n2)c1 (centres unmarked) [Compound 123, 1-(4-fluorobenzoyl)-4-[3-(3-methoxybenzyl)-1,2,4-thiadiazol-5-yl]-2-methylpiperazine]",95,0.14
"COc1cccc(Cc2nsc(N3CCN(C(=O)c4ccc(C)cc4)C(C)C3)n2)c1 (centres unmarked) [Compound 124, 1-(4-methylbenzoyl)-4-[3-(3-methoxybenzyl)-1,2,4-thiadiazol-5-yl]-2-methylpiperazine]",57,0.14

Structure (SMILES),%I [%],EC50 [µg/mL]
"CC1CN(c2nc(Cc3ccc(Cl)cc3)ns2)CCN1C(=O)c1cccc(F)c1 (centres unmarked) [Compound 125, 1-(3-fluorobenzoyl)-4-[3-(4-chlorobenzyl)-1,2,4-thiadiazol-5-yl]-2-methylpiperazine]",68,0.16
"CC1CN(c2nc(Cc3ccc(F)cc3)ns2)CCN1C(=O)c1ccccc1 (centres unmarked) [Compound 126, 1-benzoyl-4-[3-(4-fluorobenzyl)-1,2,4-thiadiazol-5-yl]-2-methylpiperazine]",63,0.21
"CC1CN(c2nc(Cc3ccc(F)cc3)ns2)CCN1C(=O)c1ccc(F)cc1 (centres unmarked) [Compound 127, 1-(4-fluorobenzoyl)-4-[3-(4-fluorobenzyl)-1,2,4-thiadiazol-5-yl]-2-methylpiperazine]",108,0.23
"CC1CN(c2nc(Cc3ccc(F)cc3)ns2)CCN1C(=O)c1ccc(C(C)(C)C)cc1 (centres unmarked) [Compound 128, 1-(4-tert-butylbenzoyl)-4-[3-(4-fluorobenzyl)-1,2,4-thiadiazol-5-yl]-2-methylpiperazine]",95,0.24
"CC1CN(c2nc(Cc3ccc(F)cc3)ns2)CCN1C(=O)c1ccc(-c2ccccc2)cc1 (centres unmarked) [Compound 129, 1-(1,1'-biphenyl-4-ylcarbonyl)-4-[3-(4-fluorobenzyl)-1,2,4-thiadiazol-5-yl]-2-methylpiperazine]",61,0.24
"CCc1ccc(C(=O)N2CCN(c3nc(Cc4ccc(C)cc4)ns3)CC2)cc1 [Compound 131, 1-(4-ethylbenzoyl)-4-[3-(4-methylbenzyl)-1,2,4-thiadiazol-5-yl]piperazine]",91,0.25
"CC1CN(c2nc(Cc3ccc(F)cc3)ns2)CCN1C(=O)c1ccc2ccccc2c1 (centres unmarked) [Compound 132, 1-(2-naphthoyl)-4-[3-(4-fluorobenzyl)-1,2,4-thiadiazol-5-yl]-2-methylpiperazine]",74,0.26
"COc1ccccc1C(=O)N1CCN(c2nc(Cc3ccc(F)cc3)ns2)CC1C (centres unmarked) [Compound 133, 1-(2-methoxybenzoyl)-4-[3-(4-fluorobenzyl)-1,2,4-thiadiazol-5-yl]-2-methylpiperazine]",118,0.29
"CCCCCc1ccc(C(=O)N2CCN(c3nc(Cc4ccc(C)cc4)ns3)CC2C)cc1 (centres unmarked) [Compound 134, 1-(4-pentylbenzoyl)-4-[3-(4-methylbenzyl)-1,2,4-thiadiazol-5-yl]-2-methylpiperazine]",75,0.3
"CC1CN(c2nc(Cc3ccc(F)cc3)ns2)CCN1C(=O)c1ccc(Br)cc1 (centres unmarked) [Compound 135, 1-(4-bromobenzoyl)-4-[3-(4-fluorobenzyl)-1,2,4-thiadiazol-5-yl]-2-methylpiperazine]",73,0.31
"COc1ccc(C(=O)N2CCN(c3nc(Cc4ccc(F)cc4)ns3)CC2C)c(OC)c1 (centres unmarked) [Compound 136, 1-(2,4-dimethoxybenzoyl)-4-[3-(4-fluorobenzyl)-1,2,4-thiadiazol-5-yl]-2-methylpiperazine]",83,0.34
"O=C(c1cc(Cl)cc(Cl)c1)N1CCN(c2nc(Cc3ccc(F)cc3)ns2)CC1 [Compound 137, 1-(3,5-dichlorobenzoyl)-4-[3-(4-fluorobenzyl)-1,2,4-thiadiazol-5-yl]piperazine]",68,0.35
"O=C(c1cccc(Cl)c1)N1CCN(c2nc(Cc3ccc(F)cc3)ns2)CC1 [Compound 138, 1-(3-chlorobenzoyl)-4-[3-(4-fluorobenzyl)-1,2,4-thiadiazol-5-yl]piperazine]",81,0.36
"Cc1ccc(C(=O)N2CCN(c3nc(Cc4ccc(F)cc4)ns3)CC2C)cc1 (centres unmarked) [Compound 139, 1-(4-methylbenzoyl)-4-[3-(4-fluorobenzyl)-1,2,4-thiadiazol-5-yl]-2-methylpiperazine]",87,0.4
"Cc1ccccc1C(=O)N1CCN(c2nc(Cc3ccc(F)cc3)ns2)CC1C (centres unmarked) [Compound 140, 1-(2-methylbenzoyl)-4-[3-(4-fluorobenzyl)-1,2,4-thiadiazol-5-yl]-2-methylpiperazine]",56,0.45
"Cc1ccc(C(=O)N2CCN(c3nc(Cc4ccc(F)cc4)ns3)CC2)cc1 [Compound 141, 1-(4-methylbenzoyl)-4-[3-(4-fluorobenzyl)-1,2,4-thiadiazol-5-yl]piperazine]",75,0.49
"CC1CN(c2nc(Cc3ccc(F)cc3)ns2)CCN1C(=O)c1cccc(Br)c1 (centres unmarked) [Compound 142, 1-(3-bromobenzoyl)-4-[3-(4-fluorobenzyl)-1,2,4-thiadiazol-5-yl]-2-methylpiperazine]",72,0.5
"CCc1ccc(C(=O)N2CCN(c3nc(Cc4cccc(OC)c4)ns3)CC2C)cc1 (centres unmarked) [Compound 143, 1-(4-ethylbenzoyl)-4-[3-(3-methoxybenzyl)-1,2,4-thiadiazol-5-yl]-2-methylpiperazine]",89,0.56
